Results as given in US8148097B2, “Screening method for identification of compounds with calcium-independent phospholipase A2β (iPLA2β) modulating activity” (Washington University, priority 2005, dated 2012).

Legend:
iPLA2β [1] = target: T1, iPLA2β (Cricetulus griseus, UniProt A0A3L7I2I8); assay: Real-time fluorescence BODIPY-PC assay of iPLA2β phospholipase A2 activity; type: biochemical
T1 construct: (His)6; made in house; host or cells: Sf9 insect cells (baculovirus)
T1 sequence (A0A3L7I2I8 1-752 isoform A0A3L7I2I8-2): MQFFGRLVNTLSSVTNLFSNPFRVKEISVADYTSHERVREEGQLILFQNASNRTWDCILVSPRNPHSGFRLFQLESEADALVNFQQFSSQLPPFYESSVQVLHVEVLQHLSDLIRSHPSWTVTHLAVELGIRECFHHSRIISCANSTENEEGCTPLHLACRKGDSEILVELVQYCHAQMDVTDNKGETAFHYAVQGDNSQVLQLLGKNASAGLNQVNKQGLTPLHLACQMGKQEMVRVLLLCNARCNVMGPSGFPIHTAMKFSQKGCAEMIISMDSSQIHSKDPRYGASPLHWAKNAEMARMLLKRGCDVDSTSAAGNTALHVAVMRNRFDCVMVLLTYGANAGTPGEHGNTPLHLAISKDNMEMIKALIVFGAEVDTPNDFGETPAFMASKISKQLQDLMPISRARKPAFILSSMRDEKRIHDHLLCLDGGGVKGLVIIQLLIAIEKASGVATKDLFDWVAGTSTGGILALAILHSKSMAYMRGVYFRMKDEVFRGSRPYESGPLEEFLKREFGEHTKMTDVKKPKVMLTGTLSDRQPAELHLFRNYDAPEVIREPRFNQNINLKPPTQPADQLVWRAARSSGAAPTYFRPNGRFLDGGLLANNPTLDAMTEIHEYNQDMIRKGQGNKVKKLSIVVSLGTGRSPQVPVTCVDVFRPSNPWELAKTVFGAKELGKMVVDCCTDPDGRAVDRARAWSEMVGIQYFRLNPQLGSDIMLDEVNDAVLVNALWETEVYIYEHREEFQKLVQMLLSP
Procedure: (§1) FIGS. 11A-11D—Purified iPLA2β+/−Ca^2+/CaM was incubated with POPC/BODIPY-PC (95:5 mol %) host vesicles for 2 min at 37° C. with the indicated concentrations of guest oleoyl-CoA. Relative fluorescence was recorded utilizing 495 nm excitation and 515 nm emission wavelengths as described in Experimental Procedures. FIGS. 11E-11H—ESI-MS analysis of phosphatidylcholine molecular species from the reactions described in panels A and D. Spectra were acquired in the positive ion mode with the indicated internal standards as described in Experimental Procedures. FIG. 11I—Purified iPLA2β in the presence or absence of Ca^2+/CaM was incubated with 1-palmitoyl-2-[1-^14C]-oleoyl-sn-glycero-3-phosphocholine (100 μM) host vesicles with or without guest oleoyl-CoA (10 μM) for 3 min at 37° C. Radiolabeled fatty acid was extracted into butanol, resolved by TLC, and quantified by scintillation spectrometry as described in Experimental Procedures.
Phospholipase A2 and Acyl-CoA Hydrolase Enzymatic Assays—Purified recombinant iPLA2β(His)6 (peptide disclosed as SEQ ID NO: 4) (0.1-1 μg) was incubated with radiolabeled phospholipid or acyl-CoA in 25 mM Tris-HCl, pH 7.2 containing 1 mM EGTA (200 μl final volume) for 1-2 mm at 37° C. […] Incorporation of acyl-CoA into the POPC/DOPS vesicles employed was determined as described previously (64). Reactions were terminated by extraction of the released radiolabeled fatty acids into 100 μl butanol, separation of fatty acids from unreacted substrate by thin layer chromatography, and quantitation by scintillation spectroscopy as previous described (65). For tests examining the effects of acyl-CoAs on calmodulin-mediated inhibition of iPLA2β, phospholipase A2 activity was continuously measured utilizing a SPECTRAmax GEMINI XS Dual-Scanning Microplate Spectrofluorometer (Molecular Devices). […] Fluorescence readings were acquired at 20 sec intervals for 5 mm at 37° C. utilizing excitation/emission wavelengths of 495/515 nm, respectively. […]

iPLA2β [2] = target: T1, iPLA2β; assay: ESI-MS analysis of iPLA2β reaction products from POPC/BODIPY-PC vesicles; type: biochemical; conditions: 5 mol % oleoyl-CoA, FIG. 11H
Procedure: as §1
To confirm that iPLA2β was in fact hydrolyzing BODIPY-PC and that the increase in fluorescence observed was not due to either protein-fluorophore or acylCoA-fluorophore interactions, the reaction substrates and products were extracted into chloroform/methanol in the presence of internal standards and subsequently quantified and analyzed by ESI-MS (83). […]

CCCCCCCC/C=C\CCCCCCCC(=O)SCCNC(=O)CCNC(=O)[C@H](O)C(C)(C)COP(=O)(O)OP(=O)(O)OC[C@H]1O[C@@H](n2cnc3c(N)ncnc32)[C@H](O)[C@@H]1OP(=O)(O)O [oleoyl-CoA]
reversal of calmodulin-mediated inhibition of iPLA2β phospholipase A2 activity (iPLA2β [1]; 5 μM oleoyl-CoA): significant reversal
activity of CaM-inhibited iPLA2β, % of initial activity (iPLA2β [1]; 1 mol % oleoyl-CoA, FIG. 11B): ≈ 40%
effect on CaM mediated inhibition of iPLA2β (iPLA2β [1]; 2.5-5 mol % oleoyl-CoA, FIG. 11C-D): completely eliminated CaM mediated inhibition
effect on inhibition of iPLA2β by Ca2+/CaM (iPLA2β [2]): completely reversed the inhibition
